pIC50: −log10 of the molar value.

In general, pIC50 refers to the negative decadic logarithm of the IC50, by convention in mol/L. Read a high pIC50 as a small IC50.

In the experiment the target is T1, human IL8B receptor (Homo sapiens, UniProt P25025).
T1 construct: expressed in transfected cells; host or cells: CHO cells with mitochondrially localized aequorin, co-transfected with G-alpha-16
T1 sequence (P25025 1-360): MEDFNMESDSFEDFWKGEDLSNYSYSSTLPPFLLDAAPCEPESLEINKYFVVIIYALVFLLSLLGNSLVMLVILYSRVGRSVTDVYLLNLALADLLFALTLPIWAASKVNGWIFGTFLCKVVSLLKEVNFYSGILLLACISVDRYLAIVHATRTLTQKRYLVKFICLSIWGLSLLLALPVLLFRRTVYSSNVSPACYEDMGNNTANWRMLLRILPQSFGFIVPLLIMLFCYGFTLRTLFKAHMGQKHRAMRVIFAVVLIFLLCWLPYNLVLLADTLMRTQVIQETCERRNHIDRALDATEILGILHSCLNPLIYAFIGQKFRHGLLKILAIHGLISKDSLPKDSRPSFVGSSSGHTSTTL
The experiment is described as follows: Functional reporter assay for IL8B receptor antagonists (aequorin Ca2+ bioluminescence in transfected CHO cells). In kind it is cell-based. As to conditions: CHO cells with mitochondrially localized aequorin, human IL8B receptor and G-alpha-16; inhibition of IL8-induced Ca2+ transient. An excerpt:
Functional Reporter Assay for High Throughput Screening of IL8B Receptor Antagonists
CHO cells with mitochondrially localized aequorin are stably transfected with the human IL8B receptor and the G-alpha-16 protein. Activation of the IL8B receptor with IL8 or an endogenous P2Y receptor with ATP leads to Ca^2+ release. This intracellular Ca^2+ transient can be detected by bioluminescence with mitochondrially localized aequorin. IL8-induced Ca^2+ transients are inhibited by IL8B receptor antagonists.
2000 cells in 25 μl of complete medium with 10% FCS per well of a 384-well multititer plate are incubated at 37° C. and 5% CO2 for 24 h. After removal of the medium, 30 μl of an 11.8 μM coelenterazine solution in 2 mM Ca-Tyrode are added, and the cells are incubated at 37° C. in 5% CO2 for a further 4 hours. 10 μl of test substance in 2 mM Ca-Tyrode/0.1% BSA are added, and the cells are incubated at room temperature for 5 minutes. The IL8B receptor is activated by adding 25 μl of a 0.78-2.6 nM IL8 solution in 2 mM Ca-Tyrode/0.1% BSA, or the endogenous P2Y receptor is activated by adding 25 μl of a 7.8-26 μM ATP solution in 2 mM Ca-Tyrode. The bioluminescence is recorded at the same time. IC50 values are calculated from dose-response plots using the Marquardt-Levenberg fit (Table A).
In general terms: A reporter such as luciferase makes a cellular process visible.
As for `CCC(C(=O)Nc1ccc(-c2cc3ccccc3s2)c(C(N)=O)c1)c1ccccc1` (single isomer, unassigned) [Example 1-2, 2-(1-Benzothien-2-yl)-5-[(2-phenylbutanoyl)amino]benzamide], the pIC50 was 7.00.

`CCC(C(=O)Nc1ccc(-c2ccc3sccc3c2)c(C(N)=O)c1)c1ccccc1` (single isomer, unassigned) [Example 39-2, 2-(1-Benzothien-5-yl)-5-[(2-phenylbutanoyl)amino]benzamide] showed a negative logarithm of the IC50 (pIC50) of 7.19.

As for `CCOc1ccc2cc(-c3ccc(NC(=O)C(CC)c4ccccc4)cc3C(N)=O)ccc2c1` (stereo not shown) [Example 2, 2-(6-Ethoxy-2-naphthyl)-5-[(2-phenylbutanoyl)amino]benzamide], the pIC50 is 6.70.

Compound `CCC(C(=O)Nc1ccc(-c2cc3ccccc3s2)c(C(N)=O)c1)c1nccs1` (stereo not shown) [Example 26, 2-(1-Benzothien-2-yl)-5-{[2-(1,3-thiazol-2-yl)butanoyl]amino}benzamide] showed a pIC50 of 7.09.

Take `CCC(C(=O)Nc1ccc(-c2ccc(-c3ccccc3)cc2)c(C(N)=O)c1)c1cccs1` (stereo not shown) [Example 29, 4-{[2-(2-Thienyl)butanoyl]amino}-1,1′:4′,1″-terphenyl-2-carboxamide]: the pIC50 was 7.04.

On to `CCC(C(=O)Nc1ccc(-c2cc3ccccc3s2)c(C(N)=O)c1)c1cccc(F)c1` (stereo not shown) [Example 30, 2-(1-Benzothien-2-yl)-5-{[2-(3-fluorophenyl)butanoyl]amino}benzamide], for which the pIC50 was 7.11.

In turn, `CCC(C(=O)Nc1ccc(-c2cc3ccccc3s2)c(C(N)=O)c1)c1ccc2c(c1)OCCO2` (stereo not shown) [Example 35, 2-(1-Benzothien-2-yl)-5-{[2-(2,3-dihydro-1,4-benzodioxin-6-yl)butanoyl]amino}benzamide] had a pIC50 of 7.13.

Values taken from patent publication US7776922B2, “Substituted [(phenylethanoyl)amino]benzamides” (Bayer Schering Pharma Aktiengesellschaft, priority 2004, dated 2010).
